# Experimental data as given in patent US11529436B2, “Engineered three-dimensional skin tissues, arrays thereof, and methods of making the same” (Organovo, Inc., priority 2014, dated 2022).
# Assays:
# Format in all cases: cell-based, human
# [1] = tested on: bioprinted full thickness skin tissue; test: Lactate dehydrogenase (LDH) activity in media of bioprinted skin tissue, skin irritation test
# Source text: Bio-ink was generated by a cellular mixture of 100% primary adult human dermal fibroblasts (HDFa) in 8% gelatin (NOVOGEL 2.0) at a concentration of 100 million cells per milliliter. The cell: gelatin ratio was altered to reduce the cellular density of the dermal sheet to better mimic dermal tissue in native skin. Three-dimensional bio-ink constructs were printed by continuous deposition using the NOVOGEN BIOPRINTER platform in a 4 mm×4 mm×0.5 mm base to create a dermal structure resembling a sheet. […] The transwell printing surface contained a polytetrafluoroethylene (PTFE) membrane coated with equimolar mixture of types I and III collagen (bovine) with pores 3 μm in size. Epidermal cell paste containing a mixture of 100% primary neonatal human epidermal keratinocytes (HEKn) was then printed on top of the dermal bio-ink. Cell paste was measured post print at 87.1% viable by trypan exclusion assay. Cell numbers in the deposited epidermal layer was estimated at 60,000 cells by cell counting on a Cell-O-Meter. Immediately following the print, constructs were placed at 4° C. for 10 minutes. Cold media was then added to the outer well of the transwell in a volume of 3 ml. The media used for subsequent growth and maintenance of the skin tissue was a 50:50 ratio of HDFa: HEKn media. The initial volume added was sufficient to submerge the structure. All subsequent media changes used warmed media (37° C.) added to the outer well of the transwell and not to the inner basket. Media was changed 48 hours later and reduced to a volume of 1.5 ml per well to bring the structure to an air-liquid interface (ALI). Media and subsequently changed 48 hours after that (day 4) at a volume of 1.5 ml. […] IL-1α production (R&D Systems) was analyzed in a colorimetric assays per manufacturer's protocol. Media was analyzed for lactate dehydrogenase as a marker for cytotoxicity. IL-1α production was assessed as a complementary endpoint to classic cytotoxicity testing to improve predictability of irritants. […] Viability was measured as fluorescence in the media by conversion of resazurin to resorufin. […]
# [2] = tested on: bioprinted full thickness skin tissue; test: IL-1α production in media of bioprinted skin tissue (colorimetric assay), skin irritation test
# Source text: Bio-ink was generated by a cellular mixture of 100% primary adult human dermal fibroblasts (HDFa) in 8% gelatin (NOVOGEL 2.0) at a concentration of 100 million cells per milliliter. The cell: gelatin ratio was altered to reduce the cellular density of the dermal sheet to better mimic dermal tissue in native skin. Three-dimensional bio-ink constructs were printed by continuous deposition using the NOVOGEN BIOPRINTER platform in a 4 mm×4 mm×0.5 mm base to create a dermal structure resembling a sheet. […] The transwell printing surface contained a polytetrafluoroethylene (PTFE) membrane coated with equimolar mixture of types I and III collagen (bovine) with pores 3 μm in size. Epidermal cell paste containing a mixture of 100% primary neonatal human epidermal keratinocytes (HEKn) was then printed on top of the dermal bio-ink. Cell paste was measured post print at 87.1% viable by trypan exclusion assay. Cell numbers in the deposited epidermal layer was estimated at 60,000 cells by cell counting on a Cell-O-Meter. Immediately following the print, constructs were placed at 4° C. for 10 minutes. Cold media was then added to the outer well of the transwell in a volume of 3 ml. The media used for subsequent growth and maintenance of the skin tissue was a 50:50 ratio of HDFa: HEKn media. The initial volume added was sufficient to submerge the structure. All subsequent media changes used warmed media (37° C.) added to the outer well of the transwell and not to the inner basket. Media was changed 48 hours later and reduced to a volume of 1.5 ml per well to bring the structure to an air-liquid interface (ALI). Media and subsequently changed 48 hours after that (day 4) at a volume of 1.5 ml. On day 5, media was changed and further reduced to 1 ml per well and subsequently changed daily. On day 10, skin tissues were subject to a skin irritation test method using 1% TRITON X-100. 1% TRITON X-100 is a known irritant and reference chemical currently used in other 3D skin models. Methods were based on OECD guidelines 439 and 431 for applying human skin models to in vitro skin irritation or corrosion, respectively. On day 10, conditioned media was saved (designated time=0) and 1 ml of fresh media was added to the outer well of the transwell. The printed skin tissue was then treated with 20 μl of PBS as a negative control or with 20 μl of 1% TRITON X-100 as a positive control and known irritant. Test substances were pipetted manually to the apical surface of the tissue. TRITON X-100 was diluted to a 1% aqueous solution in deionized water and sterile filtered through a 20 micron filter before use. […] Media was saved (designated time=1 hour). Samples were then washed extensively by PBS rinsing. […] The media was then changed at 24 hours and at 48 hours post treatment. Total media collected included time points=−48, 0, 1, 24, and 48 hours. IL-1α production (R&D Systems) was analyzed in a colorimetric assays per manufacturer's protocol. Media was analyzed for lactate dehydrogenase as a marker for cytotoxicity. IL-1α production was assessed as a complementary endpoint to classic cytotoxicity testing to improve predictability of irritants. Keratinocytes normally produce and release inflammatory cytokine IL-1α in response to chemical or physical stress. […] Viability was measured as fluorescence in the media by conversion of resazurin to resorufin. […]
# [3] = tested on: bioprinted full thickness skin tissue; test: Viability of bioprinted skin tissue by alamar blue assay, skin irritation test
# Source text: Bio-ink was generated by a cellular mixture of 100% primary adult human dermal fibroblasts (HDFa) in 8% gelatin (NOVOGEL 2.0) at a concentration of 100 million cells per milliliter. The cell: gelatin ratio was altered to reduce the cellular density of the dermal sheet to better mimic dermal tissue in native skin. Three-dimensional bio-ink constructs were printed by continuous deposition using the NOVOGEN BIOPRINTER platform in a 4 mm×4 mm×0.5 mm base to create a dermal structure resembling a sheet. […] The transwell printing surface contained a polytetrafluoroethylene (PTFE) membrane coated with equimolar mixture of types I and III collagen (bovine) with pores 3 μm in size. Epidermal cell paste containing a mixture of 100% primary neonatal human epidermal keratinocytes (HEKn) was then printed on top of the dermal bio-ink. Cell paste was measured post print at 87.1% viable by trypan exclusion assay. Cell numbers in the deposited epidermal layer was estimated at 60,000 cells by cell counting on a Cell-O-Meter. Immediately following the print, constructs were placed at 4° C. for 10 minutes. Cold media was then added to the outer well of the transwell in a volume of 3 ml. The media used for subsequent growth and maintenance of the skin tissue was a 50:50 ratio of HDFa: HEKn media. The initial volume added was sufficient to submerge the structure. All subsequent media changes used warmed media (37° C.) added to the outer well of the transwell and not to the inner basket. Media was changed 48 hours later and reduced to a volume of 1.5 ml per well to bring the structure to an air-liquid interface (ALI). Media and subsequently changed 48 hours after that (day 4) at a volume of 1.5 ml. On day 5, media was changed and further reduced to 1 ml per well and subsequently changed daily. On day 10, skin tissues were subject to a skin irritation test method using 1% TRITON X-100. 1% TRITON X-100 is a known irritant and reference chemical currently used in other 3D skin models. Methods were based on OECD guidelines 439 and 431 for applying human skin models to in vitro skin irritation or corrosion, respectively. On day 10, conditioned media was saved (designated time=0) and 1 ml of fresh media was added to the outer well of the transwell. The printed skin tissue was then treated with 20 μl of PBS as a negative control or with 20 μl of 1% TRITON X-100 as a positive control and known irritant. […] IL-1α production (R&D Systems) was analyzed in a colorimetric assays per manufacturer's protocol. Media was analyzed for lactate dehydrogenase as a marker for cytotoxicity. IL-1α production was assessed as a complementary endpoint to classic cytotoxicity testing to improve predictability of irritants. […] Viability was measured as fluorescence in the media by conversion of resazurin to resorufin. […]
# [4] = tested on: bioprinted full thickness skin tissue; test: Histological analysis of bioprinted skin tissue after irritant treatment (H&E, CK5/IVL, CK10, collagen 3, PCNA, TUNEL); conditions: 1% TRITON X-100, 1 hour exposure
# Source text: Bio-ink was generated by a cellular mixture of 100% primary adult human dermal fibroblasts (HDFa) in 8% gelatin (NOVOGEL 2.0) at a concentration of 100 million cells per milliliter. The cell: gelatin ratio was altered to reduce the cellular density of the dermal sheet to better mimic dermal tissue in native skin. Three-dimensional bio-ink constructs were printed by continuous deposition using the NOVOGEN BIOPRINTER platform in a 4 mm×4 mm×0.5 mm base to create a dermal structure resembling a sheet. One tissue construct was printed per transwell in a 6-well plate. The transwell printing surface contained a polytetrafluoroethylene (PTFE) membrane coated with equimolar mixture of types I and III collagen (bovine) with pores 3 μm in size. Epidermal cell paste containing a mixture of 100% primary neonatal human epidermal keratinocytes (HEKn) was then printed on top of the dermal bio-ink. Cell paste was measured post print at 87.1% viable by trypan exclusion assay. Cell numbers in the deposited epidermal layer was estimated at 60,000 cells by cell counting on a Cell-O-Meter. Immediately following the print, constructs were placed at 4° C. for 10 minutes. Cold media was then added to the outer well of the transwell in a volume of 3 ml. The media used for subsequent growth and maintenance of the skin tissue was a 50:50 ratio of HDFa: HEKn media. The initial volume added was sufficient to submerge the structure. All subsequent media changes used warmed media (37° C.) added to the outer well of the transwell and not to the inner basket. Media was changed 48 hours later and reduced to a volume of 1.5 ml per well to bring the structure to an air-liquid interface (ALI). Media and subsequently changed 48 hours after that (day 4) at a volume of 1.5 ml. On day 5, media was changed and further reduced to 1 ml per well and subsequently changed daily. On day 10, skin tissues were subject to a skin irritation test method using 1% TRITON X-100. 1% TRITON X-100 is a known irritant and reference chemical currently used in other 3D skin models. Methods were based on OECD guidelines 439 and 431 for applying human skin models to in vitro skin irritation or corrosion, respectively. On day 10, conditioned media was saved (designated time=0) and 1 ml of fresh media was added to the outer well of the transwell. The printed skin tissue was then treated with 20 μl of PBS as a negative control or with 20 μl of 1% TRITON X-100 as a positive control and known irritant. Test substances were pipetted manually to the apical surface of the tissue. TRITON X-100 was diluted to a 1% aqueous solution in deionized water and sterile filtered through a 20 micron filter before use. Samples were incubated for 30 minutes at 37° C. followed by 30 minutes at room temperature for a total of 60 minutes. Media was saved (designated time=1 hour). Samples were then washed extensively by PBS rinsing. Transwells were then placed in a new 6-well plate with fresh media (1 ml) added to the outer well then placed back into 37° C. overnight. The media was then changed at 24 hours and at 48 hours post treatment. Total media collected included time points=−48, 0, 1, 24, and 48 hours. IL-1α production (R&D Systems) was analyzed in a colorimetric assays per manufacturer's protocol. Media was analyzed for lactate dehydrogenase as a marker for cytotoxicity. IL-1α production was assessed as a complementary endpoint to classic cytotoxicity testing to improve predictability of irritants. Keratinocytes normally produce and release inflammatory cytokine IL-1α in response to chemical or physical stress. At 48 hours post treatment (day 12), tissues were either lysed for RNA extraction and subsequent qPCR analysis, or tested for viability by alamar blue assay then rinsed in PBS and fixed with 2% PFA for histological analysis. Alamar blue (Life Technologies) was added per manufacturer's instructions to media and incubated with tissue constructs (1 ml) at 37° C. for 3 hours. […]
# [5] = 1% TRITON X-100, 1 hour exposure, 48 hours post treatment
substance,measurement,setting,value
TRITON X-100,induction in LDH activity compared to PBS control,"[1]; 1% TRITON X-100, 1 hour exposure, 6-well format, at 1 hour, 24 hours and 48 hours post treatment",roughly 2 fold
same,LDH activity higher than PBS,"[1]; 15 minute exposure, 5% SDS or 1% TRITON X-100, 24 well plate format, 42 hours post exposure",about 1.4 fold
same,IL-1α levels,"[2]; 1% TRITON X-100, 1 hour exposure, 24 hours post treatment",remained high
same,IL-1α levels,[2]; [5],returned to baseline
same,IL-1α activity in comparison to PBS control,"[2]; 1% TRITON X-100, 1 hour exposure, greatest difference 1 hour post treatment",increased
same,IL-1α production,"[2]; 15 minute exposure, 5% SDS or 1% TRITON X-100, 24 well plate format",induced
same,reduction in viability as compared to the PBS control (alamar blue),[3]; [5],80%
same,viability compared to the PBS control (alamar blue assay),"[3]; 15 minute exposure, 5% SDS or 1% TRITON X-100, 24 well plate format, 42 hours post treatment",68.75%
same,irritancy to bioprinted skin suggested by histology,[4],irritant
